According to patent publication US6914045B2, “Glycopeptide antibiotics” (Wyeth Holdings Corporation, priority 2001, dated 2005):
Converted amounts (≈) assume the structure as drawn.

Columns and labels:
Assay in all cases: in vitro antibacterial evaluation, MIC by broth dilution
Assay type in all cases: cell-based
Streptococcus sp. = conditions: broth dilution, 18 hours at 35° C.
In short: (§1)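 MIC = lowest antibiotic concentration preventing visible growth; inoculum 5×10^5 CFU/mL; drug range 64-0.06 μg/mL; Muller-Hinton II […]; NCCLS M7-A2 guidance.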

Staphylococcus sp. = conditions: broth dilution, 18 hours at 35° C.
In short: as §1

Escherichia coli = conditions: 18 hours at 35° C.
In short: as §1

Enterococcus sp. = conditions: broth dilution, 18 hours at 35° C.
In short: as §1

For N=C1NCC(C(O)C2NC(=O)C(Cc3ccc(OC4OC(CO)C(OC5OC(CO)C(O)C6OC7(OC56)C5CC6CC(C5)CC7C6)C(O)C4O)cc3)NC(=O)C(CC3CCCCC3)NC(=O)CNC(=O)C(CO)NC(=O)C(C(O)C3CNC(=N)N3C3OC(CO)C(O)C(O)C3O)NC2=O)N1 (centres unmarked) [Example 106a, Cyclo[3-cyclohexylalanyl-O-[4-O-[2,3-O-(2-adamantylidene)hexopyranosyl]hexopyranosyl]-tyrosyl-3-(2-iminoimidazolidin-4-yl)seryl-3-(3-hexopyranosyl-2-iminoimidazolidin-4-yl)-serylserylglycyl]], the “MIC Streptococcus agalactiae (GC 4564)” value (Streptococcus sp.; Streptococcus agalactiae (GC 4564)) was 0.25 µg/mL (≈ 0.176 µM), the “MIC Streptococcus pneumoniae (ATCC 6301)” value (Streptococcus sp.; Streptococcus pneumoniae (ATCC 6301)) was 0.12 µg/mL (≈ 0.0845 µM) and the “MIC Streptococcus pneumoniae (GC 1894)” value (Streptococcus sp.; Streptococcus pneumoniae (GC 1894)) was less than 0.06 µg/mL. For the same compound, the “MIC Streptococcus pneumoniae (GC 4565)” value (Streptococcus sp.; Streptococcus pneumoniae (GC 4565)) was less than 0.06 µg/mL, the “MIC Streptococcus pyogenes (GC 4563)” value (Streptococcus sp.; Streptococcus pyogenes (GC 4563)) was 0.25 µg/mL (≈ 0.176 µM) and the “MIC Streptococcus pneumoniae (ATCC 6301)” value (Streptococcus sp.; strain ATCC 6301) was 0.12 µg/mL (≈ 0.0845 µM). The “MIC Streptococcus pneumoniae (GC 1894)” value (Streptococcus sp.; strain GC 1894) was less than 0.06 µg/mL, the “MIC Streptococcus pyogenes (GC 4563)” value (Streptococcus sp.; strain GC 4563) was 0.25 µg/mL (≈ 0.176 µM) and the “MIC Streptococcus agalactiae (GC 4564)” value (Streptococcus sp.; strain GC 4564) was 0.25 µg/mL (≈ 0.176 µM). The “MIC Streptococcus pneumoniae (GC 4565)” value (Streptococcus sp.; strain GC 4565) was less than 0.06 µg/mL, the “MIC Coagulase Negative Staphylococcus (GC 4547)” value (Staphylococcus sp.) was 2 µg/mL (≈ 1.41 µM) and the “MIC Coagulase Negative Staphylococcus (GC 4548)” value (Staphylococcus sp.) was 1 µg/mL (≈ 0.704 µM). For the same compound, the “MIC Coagulase Negative Staphylococcus (GC 4549)” value (Staphylococcus sp.) was 1 µg/mL (≈ 0.704 µM), the “MIC Coagulase Negative Staphylococcus (GC 4551)” value (Staphylococcus sp.) was 2 µg/mL (≈ 1.41 µM) and the “MIC Staphylococcus aureus (ATCC 29213)” value (Staphylococcus sp.) was 2 µg/mL (≈ 1.41 µM). For the same compound, the “MIC Staphylococcus aureus (GC 1131)” value (Staphylococcus sp.) was 2 µg/mL (≈ 1.41 µM), the “MIC Staphylococcus aureus (GC 3051)” value (Staphylococcus sp.) was 2 µg/mL (≈ 1.41 µM) and the “MIC Staphylococcus aureus (GC 3053)” value (Staphylococcus sp.) was 2 µg/mL (≈ 1.41 µM). For the same compound, the “MIC Staphylococcus aureus (GC 4541)” value (Staphylococcus sp.) was 2 µg/mL (≈ 1.41 µM), the “MIC Staphylococcus aureus (GC 4542)” value (Staphylococcus sp.) was 2 µg/mL (≈ 1.41 µM) and the “MIC Staphylococcus aureus (GC 4544)” value (Staphylococcus sp.) was 4 µg/mL (≈ 2.82 µM). For the same compound, the “MIC Staphylococcus aureus (GC 4545)” value (Staphylococcus sp.) was 2 µg/mL (≈ 1.41 µM), the “MIC Staphylococcus aureus-SMITH (GC 4543)” value (Staphylococcus sp.) was 2 µg/mL (≈ 1.41 µM) and the “MIC Staphylococcus haemolyticus (GC 4546)” value (Staphylococcus sp.) was 2 µg/mL (≈ 1.41 µM). The “MIC Staphylococcus haemolyticus (GC 4546)” value (Staphylococcus sp.; strain GC 4546) was 2 µg/mL (≈ 1.41 µM), the “MIC Coagulase Negative Staphylococcus (GC 4547)” value (Staphylococcus sp.; strain GC 4547) was 2 µg/mL (≈ 1.41 µM) and the “MIC Coagulase Negative Staphylococcus (GC 4548)” value (Staphylococcus sp.; strain GC 4548) was 1 µg/mL (≈ 0.704 µM). For the same compound, the “MIC Coagulase Negative Staphylococcus (GC 4549)” value (Staphylococcus sp.; strain GC 4549) was 1 µg/mL (≈ 0.704 µM), the “MIC Coagulase Negative Staphylococcus (GC 4551)” value (Staphylococcus sp.; strain GC 4551) was 2 µg/mL (≈ 1.41 µM) and the “MIC Staphylococcus aureus-SMITH (GC 4543)” value (Staphylococcus sp.; strain SMITH GC 4543) was 2 µg/mL (≈ 1.41 µM). The “MIC Staphylococcus aureus (ATCC 29213)” value (Staphylococcus sp.; strain ATCC 29213) was 2 µg/mL (≈ 1.41 µM), the “MIC Staphylococcus aureus (GC 1131)” value (Staphylococcus sp.; strain GC 1131) was 2 µg/mL (≈ 1.41 µM) and the “MIC Staphylococcus aureus (GC 3051)” value (Staphylococcus sp.; strain GC 3051) was 2 µg/mL (≈ 1.41 µM). For the same compound, the “MIC Staphylococcus aureus (GC 3053)” value (Staphylococcus sp.; strain GC 3053) was 2 µg/mL (≈ 1.41 µM), the “MIC Staphylococcus aureus (GC 4541)” value (Staphylococcus sp.; strain GC 4541) was 2 µg/mL (≈ 1.41 µM) and the “MIC Staphylococcus aureus (GC 4542)” value (Staphylococcus sp.; strain GC 4542) was 2 µg/mL (≈ 1.41 µM). For the same compound, the “MIC Staphylococcus aureus (GC 4544)” value (Staphylococcus sp.; strain GC 4544) was 4 µg/mL (≈ 2.82 µM), the “MIC Staphylococcus aureus (GC 4545)” value (Staphylococcus sp.; strain GC 4545) was 2 µg/mL (≈ 1.41 µM) and the “MIC Escherichia coli (ATCC 25922)” value (Escherichia coli; strain ATCC 25922) was 32 µg/mL (≈ 22.5 µM). For the same compound, the “MIC Escherichia coli (GC 4559)” value (Escherichia coli; strain GC 4559) was 32 µg/mL (≈ 22.5 µM), the “MIC Escherichia coli (GC 4560)” value (Escherichia coli; strain GC 4560) was 2 µg/mL (≈ 1.41 µM) and the “MIC Enterococcus avium (GC 4558)” value (Enterococcus sp.; Enterococcus avium (GC 4558)) was 4 µg/mL (≈ 2.82 µM). For the same compound, the “MIC Enterococcus faecalis (ATCC 29212)” value (Enterococcus sp.; Enterococcus faecalis (ATCC 29212)) was 8 µg/mL (≈ 5.64 µM), the “MIC Enterococcus faecalis (GC 2242)” value (Enterococcus sp.; Enterococcus faecalis (GC 2242)) was 4 µg/mL (≈ 2.82 µM) and the “MIC Enterococcus faecalis (GC 2691)” value (Enterococcus sp.; Enterococcus faecalis (GC 2691)) was 4 µg/mL (≈ 2.82 µM). The “MIC Enterococcus faecalis (GC 3059)” value (Enterococcus sp.; Enterococcus faecalis (GC 3059)) was 8 µg/mL (≈ 5.64 µM), the “MIC Enterococcus faecalis (GC 4552)” value (Enterococcus sp.; Enterococcus faecalis (GC 4552)) was 4 µg/mL (≈ 2.82 µM) and the “MIC Enterococcus faecalis (GC 4553)” value (Enterococcus sp.; Enterococcus faecalis (GC 4553)) was 4 µg/mL (≈ 2.82 µM). For the same compound, the “MIC Enterococcus faecalis (GC 4554)” value (Enterococcus sp.; Enterococcus faecalis (GC 4554)) was 8 µg/mL (≈ 5.64 µM), the “MIC Enterococcus faecalis (GC 6189)” value (Enterococcus sp.; Enterococcus faecalis (GC 6189)) was 4 µg/mL (≈ 2.82 µM) and the “MIC Enterococcus faecium (GC 2243)” value (Enterococcus sp.; Enterococcus faecium (GC 2243)) was 4 µg/mL (≈ 2.82 µM). The “MIC Enterococcus faecium (GC 4556)” value (Enterococcus sp.; Enterococcus faecium (GC 4556)) was 8 µg/mL (≈ 5.64 µM), the “MIC Enterococcus faecium (GC 4557)” value (Enterococcus sp.; Enterococcus faecium (GC 4557)) was 2 µg/mL (≈ 1.41 µM) and the “MIC Enterococcus faecalis (ATCC 29212)” value (Enterococcus sp.; strain ATCC 29212) was 8 µg/mL (≈ 5.64 µM). For the same compound, the “MIC Enterococcus faecalis (GC 2242)” value (Enterococcus sp.; strain GC 2242) was 4 µg/mL (≈ 2.82 µM), the “MIC Enterococcus faecium (GC 2243)” value (Enterococcus sp.; strain GC 2243) was 4 µg/mL (≈ 2.82 µM) and the “MIC Enterococcus faecalis (GC 2691)” value (Enterococcus sp.; strain GC 2691) was 4 µg/mL (≈ 2.82 µM). For the same compound, the “MIC Enterococcus faecalis (GC 3059)” value (Enterococcus sp.; strain GC 3059) was 8 µg/mL (≈ 5.64 µM), the “MIC Enterococcus faecalis (GC 4552)” value (Enterococcus sp.; strain GC 4552) was 4 µg/mL (≈ 2.82 µM) and the “MIC Enterococcus faecalis (GC 4553)” value (Enterococcus sp.; strain GC 4553) was 4 µg/mL (≈ 2.82 µM). The “MIC Enterococcus faecalis (GC 4554)” value (Enterococcus sp.; strain GC 4554) was 8 µg/mL (≈ 5.64 µM), the “MIC Enterococcus faecium (GC 4556)” value (Enterococcus sp.; strain GC 4556) was 8 µg/mL (≈ 5.64 µM) and the “MIC Enterococcus faecium (GC 4557)” value (Enterococcus sp.; strain GC 4557) was 2 µg/mL (≈ 1.41 µM). The “MIC Enterococcus avium (GC 4558)” value (Enterococcus sp.; strain GC 4558) was 4 µg/mL (≈ 2.82 µM) and the “MIC Enterococcus faecalis (GC 6189)” value (Enterococcus sp.; strain GC 6189) was 4 µg/mL (≈ 2.82 µM).
